Experimental data published in patent publication US20200270225A1, “Chiral Diacylhydrazine Ligands for Modulating the Expression of Exogenous Genes via an Ecdysone Receptor Complex” (Intrexon Corporation, priority 2007, published 2020).
pEC50: −log10 of the molar value.

Tests used:
[1] = biological target: wild-type Choristoneura fumiferana EcR (D, E and F domains) (Choristoneura fumiferana, UniProt O77240); format: cell-based; conditions: S, WT-CtEcR, 3T3 Cells
Method in brief: (§1)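 NIH3T3 cells were transiently co-transfected with GAL4-DBD fused to CfEcR DEF domains (wild-type or V390I/Y410E/E274V), VP16-AD fused to chimeric human/Locusta RXR, and a GAL4-response luciferase reporter. Ligand was given at 8 doses, 0.01–33 µM, 0.33% DMSO, luciferase read at 48 h. EC50 came from fold induction over DMSO via three-parameter logistic fit; Relative Max FI was taken versus GS™-E ligand.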

[2] = biological target: T1, [V390I/Y410E/E274V]-CfEcR (Choristoneura fumiferana, UniProt O77240); format: cell-based; conditions: S, 3T3 Cells
T1 construct: assay construct b835
Method in brief: as §1

[3] = system: RheoSwitch® Therapeutic System (RTS) gene expression; experiment: In vivo induction of RTS SEAP reporter in electroporated mice; set-up: species or system C57BL6 mice; conditions: intraperitoneal injection 26 nmol/mouse; monitored seventeen days
Source text: The wild-type D, E, and F domains from spruce budworm Choristoneura fumiferana EcR (“CfEcR-DEF”; SEQ ID NO: 1) were mutated [V107 (gtt)→1107 (att) and Y127 (tac)→E127 (gag)] and fused to a GAL4 DNA binding domain (“Gal4DBD1-147”; SEQ ID NO: 2). Helices 1 through 8 of the EF domains from Homo sapiens RXRPβ (“HsRXRβ-EF”; nucleotides 1-465 of SEQ ID NO: 4) and helices 9 through 12 of the EF domains of Locusta migratoria Ultraspiracle Protein (“LmUSP-EF”; nucleotides 403-630 of SEQ ID NO: 5) were fused to the transactivation domain from VP16 (“VP16AD”; SEQ ID NO: 6), which regulates a reporter gene human secreted alkaline phosphatase (“SEAP”, SEQ ID NO: 12) that was placed under the control of a 6xGAL4 response element (SEQ ID NO: 13) and a transthyretin promoter (SEQ ID NO: 14). Each element of the gene switch was on a separate plasmid. Receptor expression was under the control of a CMV promoter (SEQ ID NO: 15). Induction was evaluated by the amount of reporter protein expressed in the presence of ligand.
SEAP expression in serum of mice was evaluated after electroporation of the gene switch into mouse quadriceps. Mice were anesthetized with 2 μL/g of a mixture of ketamine (100 mg/mL) and xylazine (20 mg/mL). Animals were then shaved, DNA vectors injected into the muscle in a volume of 2×50 μL polyglutamic acid (12 mg/mL water), electrode conductivity gel applied, and an electrode caliber (1 cm×1 cm; model 384) was placed on hind leg. The muscle was electroporated with 200 V/cm, 8 times, for 20 msec/pulse, at 1 sec time intervals. The transverse electrical field direction was reversed after the animals received half of the pulses. Electroporation was performed with an ECM 830 electroporator from BTX Molecular Delivery Systems.
[…] In other experiments the concentration of ligand was decreased to 26 nmol/50 μL of DMSO/mouse. […]
Mouse serum was obtained by centrifugation of blood acquired by retroorbital bleeding with a small glass capillary tube. SEAP quantification was determined using a Clontech Great Escape chemiluminescence kit and by comparison with the Clontech SEAP standard. […]

Compound: CCC[C@H](N(NC(=O)c1cccc(OC)c1CC)C(=O)c1cc(C)cc(C)c1)C(C)(C)C [Example 31, (S)-3,5-Dimethyl-benzoic acid N-(1-tert-butyl-butyl)-N′-(2-ethyl-3-methoxy-benzoyl)-hydrazide]
- pEC50 [1]: 6.87
- RMFI (relative maximum fold induction) ([1]; relative to GS-E ligand): 0.52
- pEC50 [2]: ~7.52
- RMFI (relative maximum fold induction) ([2]; relative to GS-E ligand): 0.57
- RTS gene reporter (SEAP) expression in mouse serum [3]: does not induce RTS gene reporter expression
